PubChem BioAssay (NCI)
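A five-concentration, 48-hour dose response in 96-well plates underlies each endpoint, interpolated linearly between surrounding concentrations. TGI: total growth inhibition.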

What was measured:
Assay in all cases: NCI anticancer screen, dose series, 48 h
786-0 renal = system: 786-0 renal
A498 renal = system: A498 renal
A549 NSCLC = system: A549 NSCLC
ACHN renal = system: ACHN renal
CAKI-1 renal = system: CAKI-1 renal
CCRF-CEM leukemia = system: CCRF-CEM leukemia
COLO 205 colon = system: COLO 205 colon
DU-145 prostate = system: DU-145 prostate
EKVX NSCLC = system: EKVX NSCLC
HCT-116 colon = system: HCT-116 colon
HL-60(TB) leukemia = system: HL-60(TB) leukemia
HOP-62 NSCLC = system: HOP-62 NSCLC
HOP-92 NSCLC = system: HOP-92 NSCLC
HS 578T breast = system: HS 578T breast
HT29 colon = system: HT29 colon
IGROV1 ovarian = system: IGROV1 ovarian
K-562 leukemia = system: K-562 leukemia
KM12 colon = system: KM12 colon
LOX IMVI melanoma = system: LOX IMVI melanoma
M14 melanoma = system: M14 melanoma
MALME-3M melanoma = system: MALME-3M melanoma
MCF7 breast = system: MCF7 breast
MDA-MB-231 breast = system: MDA-MB-231 breast
MDA-N = system: MDA-N
MOLT-4 leukemia = system: MOLT-4 leukemia
NCI-H226 lung = system: NCI-H226 lung
NCI-H23 lung = system: NCI-H23 lung
NCI-H522 lung = system: NCI-H522 lung
NCI/ADR-RES ovarian = system: NCI/ADR-RES ovarian
OVCAR-3 ovarian = system: OVCAR-3 ovarian
OVCAR-5 ovarian = system: OVCAR-5 ovarian
OVCAR-8 ovarian = system: OVCAR-8 ovarian
PC-3 prostate = system: PC-3 prostate
RPMI-8226 leukemia = system: RPMI-8226 leukemia
SF-268 CNS = system: SF-268 CNS
SF-295 CNS = system: SF-295 CNS
SF-539 CNS = system: SF-539 CNS
SK-MEL-2 melanoma = system: SK-MEL-2 melanoma
SK-MEL-28 melanoma = system: SK-MEL-28 melanoma
SK-MEL-5 melanoma = system: SK-MEL-5 melanoma
SK-OV-3 ovarian = system: SK-OV-3 ovarian
SN12C renal = system: SN12C renal
SNB-19 CNS = system: SNB-19 CNS
SNB-75 CNS = system: SNB-75 CNS
SW-620 colon = system: SW-620 colon
T-47D breast = system: T-47D breast
TK-10 renal = system: TK-10 renal
U251 CNS = system: U251 CNS
UACC-257 melanoma = system: UACC-257 melanoma
UACC-62 melanoma = system: UACC-62 melanoma
UO-31 renal = system: UO-31 renal
HCC-2998 colon = system: HCC-2998 colon
HCT-15 colon = system: HCT-15 colon
MDA-MB-435 = system: MDA-MB-435
NCI-H460 lung = system: NCI-H460 lung
OVCAR-4 ovarian = system: OVCAR-4 ovarian
RXF 393 renal = system: RXF 393 renal
SR leukemia = system: SR leukemia

CC(O)c1nc(C#N)c(N)o1 (stereo unspecified)
TGI (786-0 renal): > 100 µM
TGI (A498 renal): > 100 µM
TGI (A549 NSCLC): > 100 µM
TGI (ACHN renal): > 100 µM
TGI (CAKI-1 renal): > 100 µM
TGI (CCRF-CEM leukemia): > 100 µM
TGI (COLO 205 colon): > 100 µM
TGI (DU-145 prostate): > 100 µM
TGI (EKVX NSCLC): > 100 µM
TGI (HCT-116 colon): > 100 µM
TGI (HL-60(TB) leukemia): > 100 µM
TGI (HOP-62 NSCLC): > 100 µM
TGI (HOP-92 NSCLC): > 100 µM
TGI (HS 578T breast): > 100 µM
TGI (HT29 colon): > 100 µM
TGI (IGROV1 ovarian): > 100 µM
TGI (K-562 leukemia): > 100 µM
TGI (KM12 colon): > 100 µM
TGI (LOX IMVI melanoma): > 100 µM
TGI (M14 melanoma): > 100 µM
TGI (MALME-3M melanoma): > 100 µM
TGI (MCF7 breast): > 100 µM
TGI (MDA-MB-231 breast): > 100 µM
TGI (MDA-N): > 100 µM
TGI (MOLT-4 leukemia): > 100 µM
TGI (NCI-H226 lung): > 100 µM
TGI (NCI-H23 lung): > 100 µM
TGI (NCI-H522 lung): > 100 µM
TGI (NCI/ADR-RES ovarian): > 100 µM
TGI (OVCAR-3 ovarian): > 100 µM
TGI (OVCAR-5 ovarian): > 100 µM
TGI (OVCAR-8 ovarian): > 100 µM
TGI (PC-3 prostate): > 100 µM
TGI (RPMI-8226 leukemia): > 100 µM
TGI (SF-268 CNS): > 100 µM
TGI (SF-295 CNS): > 100 µM
TGI (SF-539 CNS): > 100 µM
TGI (SK-MEL-2 melanoma): > 100 µM
TGI (SK-MEL-28 melanoma): > 100 µM
TGI (SK-MEL-5 melanoma): > 100 µM
TGI (SK-OV-3 ovarian): > 100 µM
TGI (SN12C renal): > 100 µM
TGI (SNB-19 CNS): > 100 µM
TGI (SNB-75 CNS): > 100 µM
TGI (SW-620 colon): > 100 µM
TGI (T-47D breast): > 100 µM
TGI (TK-10 renal): > 100 µM
TGI (U251 CNS): > 100 µM
TGI (UACC-257 melanoma): > 100 µM
TGI (UACC-62 melanoma): > 100 µM
TGI (UO-31 renal): > 100 µM

CCOc1c(Br)cc(Br)cc1C=C(C#N)C#N
TGI (786-0 renal): > 10 µM
TGI (A498 renal): 8.8 µM
TGI (A549 NSCLC): > 10 µM
TGI (ACHN renal): > 10 µM
TGI (CCRF-CEM leukemia): > 10 µM
TGI (COLO 205 colon): > 10 µM
TGI (EKVX NSCLC): > 10 µM
TGI (HCC-2998 colon): > 10 µM
TGI (HCT-116 colon): > 10 µM
TGI (HCT-15 colon): > 10 µM
TGI (HL-60(TB) leukemia): 1.19 µM
TGI (HOP-62 NSCLC): > 10 µM
TGI (HOP-92 NSCLC): > 10 µM
TGI (HS 578T breast): > 10 µM
TGI (HT29 colon): > 10 µM
TGI (IGROV1 ovarian): > 10 µM
TGI (K-562 leukemia): > 10 µM
TGI (KM12 colon): > 10 µM
TGI (LOX IMVI melanoma): 7.36 µM
TGI (MALME-3M melanoma): > 10 µM
TGI (MCF7 breast): > 10 µM
TGI (MDA-MB-435): > 10 µM
TGI (MDA-N): > 10 µM
TGI (MOLT-4 leukemia): > 10 µM
TGI (NCI-H226 lung): > 10 µM
TGI (NCI-H23 lung): > 10 µM
TGI (NCI-H460 lung): > 10 µM
TGI (NCI/ADR-RES ovarian): 4.98 µM
TGI (OVCAR-3 ovarian): > 10 µM
TGI (OVCAR-4 ovarian): > 10 µM
TGI (OVCAR-8 ovarian): > 10 µM
TGI (PC-3 prostate): > 10 µM
TGI (RPMI-8226 leukemia): > 10 µM
TGI (RXF 393 renal): > 10 µM
TGI (SF-268 CNS): > 10 µM
TGI (SF-295 CNS): > 10 µM
TGI (SF-539 CNS): 6.21 µM
TGI (SK-MEL-2 melanoma): > 10 µM
TGI (SK-MEL-28 melanoma): > 10 µM
TGI (SK-MEL-5 melanoma): > 10 µM
TGI (SK-OV-3 ovarian): > 10 µM
TGI (SN12C renal): > 10 µM
TGI (SNB-19 CNS): > 10 µM
TGI (SNB-75 CNS): > 10 µM
TGI (SR leukemia): > 10 µM
TGI (SW-620 colon): > 10 µM
TGI (T-47D breast): > 10 µM
TGI (TK-10 renal): > 10 µM
TGI (U251 CNS): > 10 µM
TGI (UACC-62 melanoma): > 10 µM
